Consider two molecules from patent US12311054B2, “Compositions and methods of using propylene sulfide-based polymers for treatment of Chagas disease” (priority 2019, dated 2025).

Like-named read-outs stand apart in the source and are kept apart here.

Series [1] concerns extracellular T. cruzi developmental stages. The settings on record: cited from earlier work.
The conditions of series [2]: traditional oral formulation; cited from earlier work.
The test system of series [3] is T. cruzi Tulahuen strain amastigote (Luc-mNeonGreen). Nature of the series: Anti-amastigote activity in infected H9C2 cells, bioluminescent quantification, Tulahuen strain. Format: cell-based. The settings on record: Trypanosoma cruzi, Tulauan strain amastigotes in H9C2 cells, bioluminescence, 48 h.
Protocol: For the evaluation of anti-amastigote activity of T. cruzi Tulahuen strain, 5000 H9C2 cells were seeded in a 96 well clear bottom tissue culture plate (Thermo Scientific). After 24 hours, the culture was infected with Luc-mNeonGreen Tulahuen strain trypomastigotes at a 1:5 host-to-parasite cell ratio for 24 h. […] The medium was replaced every 24 h. At 48 h, 10 μL of 15 mg mL-1 luciferin were added into each well, and the luciferase intensity was measured using a IVIS Spectrum (Caliper Life Science) and the ROI was analyzed with Softmas Pro. Exposure time varied from 5 s to 15 s depending on signal intensity.
Series [4] is described as follows: Assessment of the toxicity of BNZ and BNZ-PS in vivo. Set-up: species or system mouse. The settings on record: BNZ 100 mg/kg. The method, then: […] Mice weight was recorded during the treatment course. […] Serums (Sera) were sent out to central lab (IDEXX BioResearch) to measure alanine aminotransferase (ALT/SGPT), aspartate aminotransferase (AST/SGOT), bile acid, bilirubin, blood urea nitrogen (BUN), creatinine, gamma-glutamyltransferase (GGT).

Series [5] deals with T. cruzi-infected patients. The note with it: standard BNZ doses; cited from earlier work.
The conditions of series [6]: humans; cited from earlier work.
Series [7] concerns T. cruzi. The series is described as follows: IC50 of free vs nanocarrier-loaded Benznidazole (description, stage and strain not stated). The settings on record: Trypanosoma cruzi; free vs loaded in nanocarrier; typical / estimated values. Format: cell-based.
The conditions of series [8]: cited from earlier work.
For series [9], the system named is T. cruzi Tulauen strain trypomastigote. Nature of the series: Anti-trypomastigote activity, resazurin assay, Tulauen strain. The settings on record: Trypanosoma cruzi, read-out: half-inhibitory concentration (IC50), Tulauan strain trypomastigote. Format: cell-based. Here is the method:
(§1) IC50 for two strains of T. cruzi. The trypancidal effectiveness of BNZ-PS for Y and Tulauen strain was evaluated in vitro using the resarzurin assay (FIG. 2a).
(§2) Resazurin method was used to evaluate in vitro anti-trypanosoma activity against Y trypomastigotes. 1×10^7 trypomastigotes mL^−1 were incubated in 96-well plates containing serial dilution of BNZ and BNZ-PS in RPMI […] medium with 5% FBS, penicillin (100 μL/mL), […] (100 μL/mL) and L-glutamine (2 mM). For BNZ, the stock solution (1024 mM) was prepared in DMSO and made serial dilution to 1024 μM, 512 μM, 256 μM, 128 μM, 64 μM, 32 μM, 16 μM, 8 μM, 4 μM. For BNZ-PS, the stock solution (BNZ 1170 μM) was made serial dilution to 256 μM, 128 μM, 64 μM, 32 μM, 16 μM, 8 μM, 4 μM, 2 μM, 1 μM, 0.5 μM. After incubation for 24 h, at 37° C. and 5% CO2, 10 μL of alamarBlue Cell Viability reagent (Invitrogen) were added in each well, then incubate at 37° C. for 4 h. The fluorescence was measure on a microplate reader (BMG Labtech) at 560/590 nm to evaluate trypomastigote viability. A log concentration vs response curve was generated and the BNZ IC50 was calculated in GraphPad Prism 7.0.
(In general: Alamar Blue is a resazurin reagent that responds to reducing activity.)

For series [10] the following is noted: mice; cited from earlier work.
Series [11] deals with T. cruzi Y strain amastigote. The series is described as follows: Anti-amastigote activity in infected H9C2 cells, Giemsa counting, Y strain. Format: cell-based. The note with it: Trypanosoma cruzi, Y strain amastigotes in H9C2 cells, 48 h.
Series [12] concerns T. cruzi Y strain infected BALB/c mice. The series is described as follows: BNZ and BNZ-PS therapy in murine model of acute Chagas disease. Format: in vivo, mouse.
The test system of series [13] is T. cruzi Y strain trypomastigote. Nature of the series: Anti-trypomastigote activity, resazurin assay, Y strain. Format: cell-based. The settings on record: Trypanosoma cruzi, 24 h, read-out: half-inhibitory concentration (IC50), Y strain trypomastigote. Here is the method: as §1
The Y strain of T. cruzi was used for all experiments. Epimastigotes were cultured using standard methods and tissue culture amastigotes and trypomastigotes were produced by the addition of log-phase epimastigotes to cultured H9C2 rat myoblast cells, which contain small numbers of metacyclic trypomastigotes capable of initiating mammalian cell infection. After several days of culture in H9C2 cells, amastigotes and trypomastigotes were purified for use in IC50 determination experiments.
as §2, with “For BNZ-PS, the stock solution (BNZ 1170 μM) was made serial dilution to 256 μM, 128 μM, 64 μM, 32 μM, 16 μM, 8 μM, 4 μM, 2 μM, 1 μM, 0.5 μM. After incubation for 24 h, at 37° C. and 5% CO2, 10 μL of alamarBlue Cell Viability reagent (Invitrogen) were added in each well, then incubate at 37° C. for 4 h.” left out

For the molecule `C[C@@H]1[C@H](O)[C@@H](C)/C=C/C=C/C=C/C=C/C=C/C=C/C=C/[C@H](O[C@@H]2O[C@H](C)[C@@H](O)[C@H](N)[C@@H]2O)C[C@@H]2O[C@](O)(C[C@@H](O)C[C@@H](O)[C@H](O)CC[C@@H](O)C[C@@H](O)CC(=O)O[C@H]1C)C[C@H](O)[C@H]2C(=O)O` [Amphotericin B], the “activity against extracellular T. cruzi developmental stages” value in series [1] is recorded as “satisfactory”.

For `O=C(Cn1ccnc1[N+](=O)[O-])NCc1ccccc1` [BNZ, N-benzyl-2-(2-nitro-1H-imidazol-1-yl)acetamide], in series [2], the “fraction of drug bound to plasmatic proteins” value is “over 40%”. The IC50 is 12.5 µM in series [3]; roughly 33 µM in series [7]; 12.4 µM in [9]; 30.1 µM in series [11]; 55.9 µM in series [13]. Also, the “hepatotoxicity, serum ALT” value in [4] (d21) is “show hepatotoxicity as reflected by increased serum ALT”. Further, in series [4] (BNZ-PS 1.5 or 0.15 mg/kg, 3 weeks), the “body weight during treatment” value was “lose weight”. Also, the “patients interrupting treatment due to severe side effects” value in series [5] is 20%. For the same molecule, the “half-life (t1/2)” value is 12 h in [6] and 2 h in series [10]. In addition, the water solubility entry in series [8] is “practically insoluble in water”; in series [8] (listed as Benznidazole (BNZ)), “poor water solubility”. In addition, the “heart parasitemia (qPCR)” value in series [12] (end of experiment, 25 dpi) is given as “significantly reduces the heart parasitemia”. Moreover, in series [12] (infected mice treated from d7, monitored to d25), the suppression of parasitemia result is “Effective suppression of parasitemia”.
